In US20130316394A1, “VIABILITY STAINING METHOD” (priority 2012, published 2013):

Tests used:
E. coli [1] = test: Discrimination of viable and non-viable E. coli in solution with fluorescent probe and two PET quenchers; type: cell-based; conditions: mixed viable/heat killed E. coli, 0.005 mM Oxazine 170 perchlorate, 0.4 mM p-Sulfonic calix[6]arene, 100 mM Sodium ascorbate in PBS, about 5 min
Experimental: The viable and heat killed E. coli were preparations were prepared as described in Example 1. The heat killed E. coli suspension was then combined with the viable cell suspension and mixed by vortexing. The resulting cell suspension served as the viable and non-viable E. coli solution.
A fluorescent probe-quencher stain was prepared as a solution consisting of 0.005 mM Oxazine 170 perchlorate (Sigma-Aldrich, St. Louis, Mo.), 0.4 mM p-Sulfonic calix[6]arene (TCI America, Portland, Oreg.), 100 mM Sodium ascorbate (Sigma-Aldrich, St. Louis, Mo.) in PBS.
The viable and non-viable E. coli suspension was then diluted 1:1000 into the fluorescent probe-quencher solution to stain the cells. After incubation for approximately 5 minutes, a droplet of the stained cell solution was placed onto a microscope slide and imaged on a fluorescent microscope (Carl Zeiss, LLC, Thornwood, N.Y.).
FIGS. 20A and 20B show a combined image of the viable and non-viable stained E. coli captured under phase contrast (FIG. 20A) as well as fluorescent conditions (excitation 575-625 nm, emission 660-710 nm) (FIG. 20B). The viable and non-viable cells were indistinguishable in phase contrast but under fluorescent conditions the viable cells were brightly fluorescent whereas the non viable cells were not.

E. coli [2] = test: Imaging of viable and heat killed E. coli on a membrane with fluorescent probe and quencher wash; type: cell-based; conditions: 0.005 mM Oxazine 170 perchlorate stain, 10 mM quencher wash in PBS
Experimental: Viable and non-viable E. coli cell fractions were prepared by picking a colony cultured on a conventional media plate and then transferring the cells into Phosphate Buffered Saline (PBS). The cells then were suspended by vortexing and then were further diluted in PBS to give a turbidity equivalent to a 1.0 McFarland standard. This stock solution served as the live cell fraction. An aliquot of the live cell fraction was transferred to a glass tube that was placed into a boiling water bath for about 15 minutes to heat kill the E. coli. The tube was removed from the bath and allowed to cool to room temperature. This heat killed suspension served as the dead cell fraction.
A fluorescent stain solution was prepared as a 0.005 mM solution of Oxazine 170 perchlorate (Sigma-Aldrich, St. Louis, Mo.) in PBS containing a 1:100,000 dilution of 10% w/v 0.8 μm Sky Blue latex fluorescent particles (Spherotech, Lake Forest, Ill.). A separate quencher wash solution was prepared as a 10 mM Sodium ascorbate (Sigma-Aldrich, St. Louis, Mo.) solution in PBS. […]
The cells then were imaged using a fluorescent microscope (Carl Zeiss, LLC—Thornwood, N.Y.) with an excitation of 575 nm-625 nm and measured emission of 660 nm-710 nm. […]

Row | SMILES | permeation of non-viable cell membranes and quenching of fluorescence (E. coli [1]) | permeation of the quencher into heat killed cells and effect on fluorescence (E. coli [2]; heat killed E. coli on 0.2 μm membrane) | permeation of the quencher into viable cells (E. coli [2]; live E. coli on 0.2 μm membrane)
1 | O=C1O[C@H]([C@@H](O)CO)C([O-])=C1O.[Na+] [sodium ascorbate, Sodium Ascorbate] | effective quenching of fluorescence | quenching of the fluorescent signal and a loss of fluorescence | excluded from the viable cells
2 | O=S(=O)(O)c1cc2c(O)c(c1)Cc1cc(S(=O)(=O)O)cc(c1O)Cc1cc(S(=O)(=O)O)cc(c1O)Cc1cc(S(=O)(=O)O)cc(c1O)Cc1cc(S(=O)(=O)O)cc(c1O)Cc1cc(S(=O)(=O)O)cc(c1O)C2 [p-Sulfonic calix[6]arene, 4- Sulfocalix [6]arene] | effective quenching of fluorescence |  | 
